From US12404270B2, “Quinazoline derivatives as LPA receptor 2 inhibitors” (CHIESI FARMACEUTICI S.P.A., priority 2019, dated 2025) come the findings set out here.

The assay deals with T1, human recombinant LPA2 expressed in CHO cells (Homo sapiens, UniProt Q9HBW0).
T1 construct: expressed in transfected cells; host or cells: CHO (CHO-hLPA2 cell line)
T1 sequence (Q9HBW0 whole entry): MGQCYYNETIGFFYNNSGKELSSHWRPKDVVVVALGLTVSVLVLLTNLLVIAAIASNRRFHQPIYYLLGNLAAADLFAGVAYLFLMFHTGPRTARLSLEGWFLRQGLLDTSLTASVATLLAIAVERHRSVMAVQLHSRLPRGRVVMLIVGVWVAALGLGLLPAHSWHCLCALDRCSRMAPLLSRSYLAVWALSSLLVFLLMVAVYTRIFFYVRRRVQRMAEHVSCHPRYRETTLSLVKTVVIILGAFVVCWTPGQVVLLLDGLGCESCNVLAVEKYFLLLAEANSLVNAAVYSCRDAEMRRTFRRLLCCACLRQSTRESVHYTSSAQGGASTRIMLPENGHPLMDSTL
Kind of assay: FLIPR calcium mobilization assay, LPA2 antagonism in CHO-hLPA2 cells. Type of assay: cell-based. The settings on record: CHO-hLPA2 cells, inhibition of LPA EC80 Ca2+ response, 30 min pre-incubation; read-out: LPA2 IC50. The protocol: The effectiveness of compounds of the present invention as LPA2 antagonist can be determined at the human recombinant LPA2 expressed in CHO cells, using a FLIPR assay in 384 well format.
CHO-hLPA2 cell lines are cultured in a humidified incubator at 5% CO2 in DMEM/F-12 (1:1) MIXTURE with 2 mM Glutamax, supplemented with 10% of Foetal Bovine Serum, 1 mM Sodium Pyruvate, 11 mM Hepes and 1× Penicillin/Streptomycin. CHO hLPA2 cells are seeded into black walled clear-bottom 384-well plates (#781091, Greiner Bio-One GmbH) at a density of 7,500 cells per well in 50 μl culture media and grown overnight in a 37° C. humidified CO2-incubator. Serial dilutions (1:3 or 1:4, 11 points CRC) of compounds are performed in 100% DMSO at 200× the final concentration. The compounds are diluted 1:50 prior to the experiment with Assay Buffer (20 mM HEPES, 145 mM NaCl, 5 mM KCl, 5.5 mM glucose, 1 mM MgCl2 and 2 mM CaCl2, pH 7.4 containing 0.01% Pluronic F-127) to obtain a solution corresponding to […] the final concentration in the assay (4×, 2% DMSO). The final concentration of DMSO in the assay will be 0.5% in each well. Medium is removed by aspiration and cells are then incubated with 30 μl of a loading solution containing 5 μM of the cytoplasmic Ca2+ indicator Cal-520 AM in Assay Buffer containing 2.5 mM probenecid for 30 min at 37° C. incubator (cell loading). The loaded cell plates are transferred into the FLIPR instrument and calcium responses are monitored during the on-line addition protocols. For testing of compounds, after the cell loading, 10 μl/well of 4× antagonists' solution was added onto the cells. […] Intracellular peak fluorescence values subtracted by baseline fluorescence are exported and analysed to determine IC50 values, respectively. The calcium response is expressed as percentage of the maximal inhibition of the EC80 agonist response.
The raw data (peak height expressed as relative fluorescence units) are normalized and transformed into “percent of inhibition”. Curve fitting and pIC50 (−Log IC50) estimations are carried out using a four-parameter logistic model using XLfit Software.
In the case of `COC(=O)Nc1nc(C)c(S(=O)(=O)N2CCN(C[C@H](C)Nc3ncnc4c(C(=O)N5CC6CC6C5)cccc34)CC2)s1` (mixture of isomers) [Example 87, methyl N-[5-({4-[(2S)-2-[(8-{3-azabicyclo[3.1.0]hexane-3-carbonyl}quinazolin-4-yl)amino]propyl]piperazin-1-yl}sulfonyl)-4-methyl-1,3-thiazol-2-yl]carbamate], the IC50 (usually the point on the concentration scale where inhibition reaches its midpoint) lay within 10 to 100 nM.
Regarding `C[C@@H](CN1CCN(S(=O)(=O)c2ccc(-c3ccn[nH]3)o2)CC1)Nc1ncnc2c(C(F)(F)F)cccc12` [Example 67, N-[(2S)-1-(4-{[5-(1H-pyrazol-5-yl)furan-2-yl]sulfonyl}piperazin-1-yl)propan-2-yl]-8-(trifluoromethyl)quinazolin-4-amine], the concentration for half-maximal inhibition (IC50) is under 1000 nM.
As to `Cc1noc(-c2ccc(S(=O)(=O)N3CCN(C[C@H](C)Nc4ncnc5c(C(F)(F)F)cccc45)CC3)o2)c1C` [Example 68, N-[(2S)-1-(4-{[5-(3,4-dimethyl-1,2-oxazol-5-yl)furan-2-yl]sulfonyl}piperazin-1-yl)propan-2-yl]-8-(trifluoromethyl)quinazolin-4-amine], the IC50 fell in the range of 10 to 100 nM.
The same measure for `COC(=O)Nc1nc(C)c(S(=O)(=O)N2CCN(C[C@H](C)Nc3ncnc4c(C(=O)OC)cccc34)CC2)s1` [Example 17, methyl 4-{[(2S)-1-[4-({2-[(methoxycarbonyl)amino]-4-methyl-1,3-thiazol-5-yl}sulfonyl)piperazin-1-yl]propan-2-yl]amino}quinazoline-8-carboxylate]: 10 to 100 nM; for `Cc1noc(-c2ccc(S(=O)(=O)N3CCN(C[C@H](C)Nc4ncnc5c(C(=O)N6CC7CC7C6)cccc45)CC3)s2)c1C` (mixture of isomers) [Example 85, 8-{3-azabicyclo[3.1.0]hexane-3-carbonyl}-N-[(2S)-1-(4-{[5-(3,4-dimethyl-1,2-oxazol-5-yl)thiophen-2-yl]sulfonyl}piperazin-1-yl)propan-2-yl]quinazolin-4-amine]: under 10 nM; for `C[C@@H](CN1CCN(S(=O)(=O)c2ccc(-c3ccno3)o2)CC1)Nc1ncnc2c(C(F)(F)F)cccc12` [Example 54, N-[(2S)-1-(4-{[5-(1,2-oxazol-5-yl)furan-2-yl]sulfonyl}piperazin-1-yl)propan-2-yl]-8-(trifluoromethyl)quinazolin-4-amine]: under 1000 nM.
On to `Cc1n[nH]c(-c2ccc(S(=O)(=O)N3CCN(C[C@H](C)Nc4ncnc5c(C(F)(F)F)cccc45)CC3)o2)c1C` [Example 56, N-[(2S)-1-(4-{[5-(3,4-dimethyl-1H-pyrazol-5-yl)furan-2-yl]sulfonyl}piperazin-1-yl)propan-2-yl]-8-(trifluoromethyl)quinazolin-4-amine], for which the half-maximal inhibitory concentration (IC50) fell in the range of 10 to 100 nM.
The same measure for `COC(=O)c1cccc2c(N[C@@H](C)CN3CCN(S(=O)(=O)c4cnc(NC(C)=O)s4)CC3)ncnc12` [Example 20, methyl 4-{[(2S)-1-{4-[(2-acetamido-1,3-thiazol-5-yl)sulfonyl]piperazin-1-yl}propan-2-yl]amino}quinazoline-8-carboxylate]: 10 to 100 nM; for `CC(=O)Nc1ncc(S(=O)(=O)N2CCN(C[C@H](C)Nc3nc(C)nc4c(C(F)(F)F)cccc34)CC2)s1` [Example 13, N-[5-({4-[(2S)-2-{[2-methyl-8-(trifluoromethyl)quinazolin-4-yl]amino}propyl]piperazin-1-yl}sulfonyl)-1,3-thiazol-2-yl]acetamide]: 10 to 100 nM.
For `COC(=O)Nc1nc(C)c(S(=O)(=O)N2CCN(C[C@H](C)Nc3nc(C4CC4)nc4c(C)cccc34)CC2)s1` [Example 18, methyl N-[5-({4-[(2S)-2-[(2-cyclopropyl-8-methylquinazolin-4-yl)amino]propyl]piperazin-1-yl}sulfonyl)-4-methyl-1,3-thiazol-2-yl]carbamate] the value was 10 to 100 nM; for `C[C@@H](CN1CCN(S(=O)(=O)c2ccc(Cl)c(Cl)c2)CC1)Nc1ncnc2c(Cl)cccc12` [Example 6, 8-chloro-N-[(2S)-1-[4-(3,4-dichlorobenzenesulfonyl)piperazin-1-yl]propan-2-yl]quinazolin-4-amine], under 1000 nM.
With `COC(=O)Nc1nc(C)c(S(=O)(=O)N2CCN(C[C@H](C)Nc3ncnc4c(OC(F)(F)F)cccc34)CC2)s1` [Example 3, Methyl N-[4-methyl-5-({4-[(2S)-2-{[8-(trifluoromethoxy)quinazolin-4-yl]amino}propyl]piperazin-1-yl}sulfonyl)-1,3-thiazol-2-yl]carbamate], the IC50 was 10 to 100 nM.
For `Cc1noc(-c2ccc(S(=O)(=O)N3CCN(C[C@H](C)Nc4ncnc5c(C(=O)N6CCC[C@H]6C(F)(F)F)cccc45)CC3)s2)c1C` (racemic) [Example 69, N-[(2S)-1-(4-{[5-(3,4-dimethyl-1,2-oxazol-5-yl)thiophen-2-yl]sulfonyl}piperazin-1-yl)propan-2-yl]-8-[(2S)-2-(trifluoromethyl)pyrrolidine-1-carbonyl]quinazolin-4-amine] the value was under 10 nM.
Regarding `Cc1cc(-c2ncc(S(=O)(=O)N3CCN(C[C@H](C)Nc4ncnc5c(C(F)(F)F)cccc45)CC3)s2)on1` [Example 63, N-[(2S)-1-(4-{[2-(3-methyl-1,2-oxazol-5-yl)-1,3-thiazol-5-yl]sulfonyl}piperazin-1-yl)propan-2-yl]-8-(trifluoromethyl)quinazolin-4-amine], the IC50 lay within 10 to 100 nM.
The same measure for `COCc1nc(N[C@@H](C)CN2CCN(S(=O)(=O)c3ccc(-c4onc(C)c4C)s3)CC2)c2cccc(C(F)(F)F)c2n1` [Example 61, N-[(2S)-1-(4-{[5-(3,4-dimethyl-1,2-oxazol-5-yl)thiophen-2-yl]sulfonyl}piperazin-1-yl)propan-2-yl]-2-(methoxymethyl)-8-(trifluoromethyl)quinazolin-4-amine]: under 1000 nM.
As to `CC(=O)Nc1ccc(S(=O)(=O)N2CCN(C[C@H](C)Nc3ncnc4c(C(F)(F)F)cccc34)CC2)s1` [Example 90, N-[5-({4-[(2S)-2-{[8-(trifluoromethyl)quinazolin-4-yl]amino}propyl]piperazin-1-yl}sulfonyl)thiophen-2-yl]acetamide], the IC50 is under 1000 nM.
On to `COC(=O)N(C)c1nc(C)c(S(=O)(=O)N2CCN(C[C@H](C)Nc3ncnc4c(C(F)(F)F)cccc34)CC2)s1` [Example 89, methyl N-methyl-N-[4-methyl-5-({4-[(2S)-2-{[8-(trifluoromethyl)quinazolin-4-yl]amino}propyl]piperazin-1-yl}sulfonyl)-1,3-thiazol-2-yl]carbamate], for which the half-maximal inhibitory concentration (IC50) fell in the range of 10 to 100 nM.
The same measure for `Cc1cc(-c2ccc(S(=O)(=O)N3CCN(C[C@H](C)Nc4ncnc5c(C(F)(F)F)cccc45)CC3)o2)on1` [Example 52, N-[(2S)-1-(4-{[5-(3-methyl-1,2-oxazol-5-yl)furan-2-yl]sulfonyl}piperazin-1-yl)propan-2-yl]-8-(trifluoromethyl)quinazolin-4-amine]: 10 to 100 nM; for `C[C@@H](CN1CCN(S(=O)(=O)c2cc(-c3ccno3)cs2)CC1)Nc1ncnc2c(C(F)(F)F)cccc12` [Example 71, N-[(2S)-1-(4-{[4-(1,2-oxazol-5-yl)thiophen-2-yl]sulfonyl}piperazin-1-yl)propan-2-yl]-8-(trifluoromethyl)quinazolin-4-amine]: 10 to 100 nM.
Turning to `COC(=O)Nc1nc(C)c(S(=O)(=O)N2CCN(C[C@H](C)Nc3ncnc4c([N+](=O)[O-])cccc34)CC2)s1` [Example 55, methyl N-[4-methyl-5-({4-[(2S)-2-[(8-nitroquinazolin-4-yl)amino]propyl]piperazin-1-yl}sulfonyl)-1,3-thiazol-2-yl]carbamate], the IC50 is under 1000 nM.
The same measure for `COC(=O)Nc1nc(C)c(S(=O)(=O)N2CCN(C[C@H](C)Nc3ncnc4c(C(=O)N5CCC[C@@H]5C)cccc34)CC2)s1` (racemic) [Example 82, methyl N-[4-methyl-5-({4-[(2S)-2-({8-[(2S)-2-methylpyrrolidine-1-carbonyl]quinazolin-4-yl}amino)propyl]piperazin-1-yl}sulfonyl)-1,3-thiazol-2-yl]carbamate]: 10 to 100 nM.
Regarding `COCC(=O)Nc1ncc(S(=O)(=O)N2CCN(C[C@H](C)Nc3ncnc4c(C(F)(F)F)cccc34)CC2)s1` [Example 24, 2-methoxy-N-[5-({4-[(2S)-2-{[8-(trifluoromethyl)quinazolin-4-yl]amino}propyl]piperazin-1-yl}sulfonyl)-1,3-thiazol-2-yl]acetamide], the IC50 is under 1000 nM.
The same measure for `COC(=O)Nc1nc(C)c(S(=O)(=O)N2CCN(C[C@H](C)Nc3ncnc4c(Br)cccc34)CC2)s1` [Example 101, methyl N-[5-({4-[(2S)-2-[(8-bromoquinazolin-4-yl)amino]propyl]piperazin-1-yl}sulfonyl)-4-methyl-1,3-thiazol-2-yl]carbamate]: 10 to 100 nM.
